For test [1], the system named is P. aeruginosa PAO1. The class given is cell-based, Pseudomonas aeruginosa. Conditions: inhibitor 10 ug/ml with TBO 250 μM, 30 min, wash; 660-nm light 100 mWcm^-2.
Test [2] deals with S. aureus NorA-, wild type, and NorA+. In words: Photodynamic inactivation (PDI), light-dose dependent phototoxicity. The class given is cell-based, Staphylococcus aureus. Conditions: 10 μM; for light dose by which strain is eliminated: NorA knockout strain, 635-nm light 100 mWcm^-2; for light dose by which strain is eliminated / logs of killing: 30 min; for logs less killing than wild-type: NorA overexpression strain, 635-nm light; for overall order of efficiency of killing: S. aureus NorA strains; for logs less killing compared to wild-type: NorA overexpressing strain; for logs of killing: wild-type strain. The method, then: (§1) A polylysine-chlorine6 conjugate (pL-ce6), and Rose Bengal (RB) (Sigma-Aldrich) were used as non-phenothiazinium-based PS (FIG. 3). Stock solutions were prepared in water at a concentration of 2-mM and stored for a maximum of 2 weeks at 4° C. in the dark before use. Spectra of stock solutions diluted 140-280 fold in methanol were recorded on an UV-visible spectroscopy system (Waldbronn, Germany). A non-coherent light source with interchangeable fiber bundles (LC122, LumaCare, London, UK) was employed. Thirty-nm band pass filters at ranges 540±15 nm for RB, 635±15 nm for TBO, and DMMB, and 660±15 nm for MB and pLce6 were used. The total power output provided out of the fiber bundle ranged from 300-700 mW. The spot was arranged to give an irradiance of 100 mW/cm^2.
(§2) Bacterial suspensions in PBS (initial concentration 10^8 cells mL^−1) were incubated with PS in the dark at room temperature for 30 minutes at concentrations varying from 1-μM to 300-μM. The cell suspensions were centrifuged at 12000 rpm and then washed twice with sterile PBS. The bacterial suspensions were placed in wells of 96 well micro titer plates (Fisher Scientific) and illuminated with appropriate light at room temperature. Fluences ranged from 0 to 20 Jcm^−2 at a fluence rate of 100 mWcm^−2. During illumination, aliquots of […] were taken to determine the colony-forming units. The contents of the wells were mixed before sampling. The aliquots were serially diluted 10-fold in PBS to give dilutions of 10^−1-10^−6 times the original concentrations and were streaked horizontally on square BHI agar plates as described by Jett et al (1997). This allowed a maximum of seven logs of killing to be measured. Plates were incubated at 37° C. overnight. Two types of control conditions were used: illumination in the absence of photosensitizer and incubation with photosensitizer in the dark.
The three isogenic strains of S. aureus were incubated with 10 μM MB for 30 minutes and then washed free of unbound dye by centrifugation and resuspension in PBS and illuminated with 100 mWcm^−2 660-nm light, and the survival fractions determined as described above.
To establish the recognition of phenothiazinium dyes as a class by NorA, the experiments described in FIG. 4 were repeated with the phenothiazinium compounds TBO and DMMB. Incubation with the photosensitizer was for 30 min followed by a wash. Bacteria were then illuminated with 100 mWcm^−2 635-nm light for both TBO and DMMB. The results shown in FIGS. 7a and 7b show a similar pattern to the susceptibilities as was found for MB. The NorA knockout strain is eliminated by 1 J/cm2 in the case of TBO and by 0.5 J/cm2 in the case of DMMB. […]

Test [3] relates to E. coli wild type and TolC-. The class given is cell-based, Escherichia coli. The method, then:
as §1, §2
It was necessary to use higher overall PDI doses to kill the Gram-negative E. coli compared to the Gram-positive S. aureus. A concentration of MB of 50 μM was selected with the same 30-minute incubation and wash by centrifugation, together with light doses up to 20 J/cm^2.

Test [4] concerns P. aeruginosa MexAB-, wild type and MexAB+. The class given is cell-based, Pseudomonas aeruginosa. Conditions: wild-type strain; 300 μM; after 20 J/cm2.
Procedure: A polylysine-chlorine6 conjugate (pL-ce6), and Rose Bengal (RB) (Sigma-Aldrich) were used as non-phenothiazinium-based PS (FIG. 3). Stock solutions were prepared in water at a concentration of 2-mM and stored for a maximum of 2 weeks at 4° C. in the dark before use. Spectra of stock solutions diluted 140-280 fold in methanol were recorded on an UV-visible spectroscopy system (Waldbronn, Germany). A non-coherent light source with interchangeable fiber bundles (LC122, LumaCare, London, UK) was employed. […] The total power output provided out of the fiber bundle ranged from 300-700 mW. The spot was arranged to give an irradiance of 100 mW/cm^2.
Bacterial suspensions in PBS (initial concentration 10^8 cells mL^−1) were incubated with PS in the dark at room temperature for 30 minutes at concentrations varying from 1-μM to 300-μM. The cell suspensions were centrifuged at 12000 rpm and then washed twice with sterile PBS. The bacterial suspensions were placed in wells of 96 well micro titer plates (Fisher Scientific) and illuminated with appropriate light at room temperature. Fluences ranged from 0 to 20 Jcm^−2 at a fluence rate of 100 mWcm^−2. During illumination, aliquots of 10 were taken to determine the colony-forming units. The contents of the wells were mixed before sampling. […] This allowed a maximum of seven logs of killing to be measured. […]

Structures are written as SMILES. Like-named read-outs stand apart in the source and are kept apart here. Non-standard residues stand in square brackets, D forms with d. Residues, ends and D or L forms follow the SMILES beside them. ξ: configuration not given here. *: point of attachment. ξR = N=C(N)NCCCC(N)C(=O)O; βNA = c1ccc2cc(N*)ccc2c1

As for `NC(N)=NCCCC(NC(=O)[C@@H](N)Cc1ccccc1)C(=O)Nc1ccc2ccccc2c1` (stereo partly drawn) [MC207110] (H-Phe-[ξR]-βNA), the logs of killing in test [1] worked out at 5 logs.
Turning to `Cc1cc2nc3ccc(N(C)C)cc3[s+]c2cc1N.[Cl-]` [TBO, Toluidine blue O], in test [2] (wash), the “light dose by which strain is eliminated” value was no more than 1 J/cm2. For the same compound, in test [2], the “logs less killing than wild-type” value is on record as “roughly 2 logs” and the “overall order of efficiency of killing” value is reported as “DMMB>TBO>MB”.
On to `Cc1cc(N(C)C)cc2[s+]c3cc(N(C)C)cc(C)c3nc12` [DMMB, 1,9-dimethylmethylene blue], for which the “light dose by which strain is eliminated” value in test [2] (wash) is recorded as no more than 0.5 J/cm2. For the same compound, in test [2], the “logs less killing than wild-type” value is reported as “roughly 2 logs” and the “overall order of efficiency of killing” value is reported as “DMMB>TBO>MB”.
Consider `O=C1OC2(c3cc(I)c(O)c(I)c3Oc3c2cc(I)c(O)c3I)c2c(Cl)c(Cl)c(Cl)c(Cl)c21` [RB, Rose Bengal], for which the “differences in killing between the three NorA phenotypes” value in test [2] (wash, 540-nm light 100 mWcm^-2) is “no differences in killing”.
Turning to `CN(C)c1ccc2nc3ccc(=[N+](C)C)cc-3sc2c1` [MB, methylene blue], the “logs more killing than wild-type” value was 2 logs in test [3] (TolC knock-out mutant, 50 μM, 30 min, wash, at 5 J/cm^2) and “three” in test [3] (TolC knock-out mutant, 50 μM, at 10 J/cm^2). The killing result was “totally eliminated” in test [3] (TolC knock-out mutant, 50 μM, light doses higher than 10 J/cm^2 (up to 20 J/cm^2)); “totally eliminated” in test [3] (TolC knock-out, 250 μM, after 20 J/cm^2 (data not shown)); “totally eliminated” in test [3] (wild-type, 250 μM, after 20 J/cm^2 (data not shown)); “complete killing” in test [2] (NorA knock-out, 660-nm light, after 1 J/cm^2). In addition, the “logs less killing compared to wild-type” value is 1 log in test [2] (660-nm light, at 1 J/cm^2); 2 logs in test [2] (660-nm light, at 2 J/cm^2); 3 logs in test [2] (660-nm light, at 4 J/cm^2). Besides, the logs of killing in test [2] (wash, 660-nm light 100 mWcm^-2, after 1 J/cm^2) worked out at 3 logs; in test [2] (wash, 660-nm light, after 2 J/cm^2) it was 5 logs; in test [2] (wash, 660-nm light, after 4 J/cm^2) it was 7 logs; in test [4], 5 logs.
